Article PMC5190008, “BO-1055, a novel DNA cross-linking agent with remarkable low myelotoxicity shows potent activity in sarcoma models” (Oncotarget, 2016)

Assays:
leukemia cell lines = tested on: leukemia cell lines; design: method as in PMID 21106377; conditions: leukemia cell lines ref 6; cited from earlier work
Human MSC = experiment: Comet assay; type: cell-based; conditions: 3h
Experimental: We used comet assay, which includes single cell gel electrophoresis to assess DNA breaks when exposed to radiation or DNA damaging agents. […] Olive moment (micrometers), a product of tail DNA% and the distance between the centroids of head and tail, is an accurate parameter of DNA damage. […] Gamma-H2AX (γH2AX) phosphorylation is the initial step in DNA damage response following double stranded breaks and is responsible for recruiting DNA repair proteins.
Comet assay was performed according to the protocol described earlier. Cells were treated with BO-1055 at 2μM concentration for 3h, or immediately after exposure to 8Gy radiation after which they were isolated and mixed with 1% low melting point agarose in a tube. The cells in agarose were transferred to slides coated with normal melting point agarose. The agarose-immobilized cells were lysed in alkaline solution and the agarose trapped DNA was electrophoresed. DNA was stained with ethidium bromide and image acquisition was done immediately. DNA damage quantification was performed using OpenComet v1.3, an open-source software plugin in Image J 1.47v software (NIH, USA) for automated analysis. Olive moment, which is the product of tail DNA% and the distance between the intensity-weighted centroids of head and tail was taken from the output for analysis.

[1] = In vivo toxicity testing: complete blood counts, renal and liver function tests; conditions: C57 healthy mice
Text: However myelotoxicity has been a challenge, resulting in delay in treatment cycles and infectious complications. Hematopoietic toxicity was partly alleviated by the administration of G-CSF [32] and allowed dose-escalation. […] Overcoming hematopoietic and organ toxicities will allow us to administer chemotherapy at a higher dose and at a shorter interval, which can potentially result in better cure rates. […] This was also seen in the in vivo toxicity study in C57 healthy mice where hematologic toxicity was not observed at day 10 after 5 doses of BO-1055 at 30mg/kg/dose (Supplementary Table 1). […]
Supplementary table 1. Complete blood counts, renal and […] function tests in C57 healthy mice (n=4 per group) in control and treatment groups. Treatment group received BO--1055 at 30mg/kg/dose on days […]
Control group BO--1055 group Control group BO--1055 group baseline baseline day 10 day 10
Mean SD Mean SD Mean SD Mean SD

CCRF-CEM/Taxol cells = tested on: CCRF-CEM/Taxol cells; design: method as in PMID 21106377; conditions: CCRF-CEM/Taxol ref 6; cited from earlier work
[2] = tested on: patient derived Ewing sarcoma xenografts; experiment: Cyclophosphamide resistant patient-derived Ewing sarcoma xenografts; type: in vivo, NSG mice; conditions: 30mg/kg/dose i.v. q2d x 4, tumors progressed to 500mm^3 after MTD cyclophosphamide
Experimental: Patient derived xenografts were established from Ewing sarcoma patients who progressed through first line chemotherapy that included cyclophosphamide, doxorubicin, vincristine, ifosfamide and etoposide (PS3). When these Ewing sarcoma xenografts (n = 10) reached 100mm^3, they were randomized to control and treatment groups.
All mouse experiments were performed at the animal core facility at MSKCC under an approved protocol following the IACUC guidelines. Five to seven-week-old NOD/SCID IL2R gamma null (NSG) mice (bred at the Mouse Genetics Core Facility, MSKCC) were used for in vivo experiments. All mouse experiments were done following the IACUC guidelines at the animal facility at MSKCC. Tumors were induced using 10^6 A673 cells or A204 cells in 0.2ml 1:1 cellular medium, Matrigel matrix (BD Bioscience, Bedford, MA) and injected subcutaneously (s.q) into the right flank. The tumors were measured every 3 d with a caliper, and the diameters were recorded. Tumor volume was calculated by the formula a^2 b/2 where ‘a’ is the smallest and ‘b’ is the largest diameter. When the tumors reached 100mm^3, we randomized mice into control and drug treatment groups. Treatment groups received BO-1055 by tail vein injection at 10mg/kg, 20mg/kg and 30mg/kg q2d x 5 doses for mice bearing A673 xenografts. BO-1055 was given at 30mg/kg q2d x 5 doses for mice bearing A204 xenografts. […]

[3] = design: method as in PMID 23353940; conditions: rats, HPLC-PDA ref 7; cited from earlier work
[4] = 30mg/kg/dose on days 1,3,5,8 and 10, day 10, mean, n=4

For `CN(C)CCNC(=O)c1cccc(NC(=O)Nc2ccc(N(CCCl)CCCl)cc2)c1` [BO-1055], the “cross resistance to taxol or vinblastine” value (leukemia cell lines) is given as “little or no cross resistance”, the “olive moment relative to radiation (XRT, 8Gy)” value (Human MSC) is given as “relatively less” and the ALT [1, 4] is given as 89.50 U/L. The AST [1, 4] was 74.25 U/L, the BASO [1, 4] was 0.45% and the “BASO#” value [1, 4] was 0.02 K/uL. For the same molecule, the BUN [1, 4] was 24.50 mg/dL, the BUN/CREA ratio [1, 4] was 125.40 and the CREA [1, 4] was 0.20 mg/dL. For the same molecule, the DBIL [1, 4] was 0.00 mg/dL, the EO [1, 4] was 2.93% and the “EO#” value [1, 4] was 0.13 K/uL. The GLU [1, 4] was 166.00 mg/dL, the HCT [1, 4] was 46.30% and the HGB [1, 4] was 13.08 g/dL. For the same molecule, the IBIL [1, 4] was 0.13 mg/dL, the LYMPH [1, 4] was 51.63% and the “LYMPH#” value [1, 4] was 2.90 K/uL. The MCH [1, 4] was 14.40 pg, the MCHC [1, 4] was 28.28 g/dL and the MCV [1, 4] was 51.03 fL. For the same molecule, the MONO [1, 4] was 7.80%, the “MONO#” value [1, 4] was 0.39 K/uL and the MPV [1, 4] was 6.38 fL. For the same molecule, the NEUT [1, 4] was 37.20%, the “NEUT#” value [1, 4] was 1.90 K/uL and the PDW [1, 4] was 7.40 fL. The PLT [1, 4] was 1108.25 K/uL, the RBC [1, 4] was 9.08 M/uL and the RDW-CV [1, 4] was 23.18%. For the same molecule, the RDW-SD [1, 4] was 32.48 fL, the RET [1, 4] was 4.72% and the “RET#” value [1, 4] was 426.88 K/uL. The TBIL [1, 4] was 0.23 mg/dL, the TP [1, 4] was 3.77 g/dL and the “WBC#” value [1, 4] was 5.34 K/uL. For the same molecule, the “change in hematocrit, platelet count or neutrophil count” value ([1]; day 10) was “did not reveal a significant change”, the hematologic toxicity ([1]; day 10 after 5 doses at 30mg/kg/dose) was “not observed” and the “resistance of CCRF-CEM/Taxol cells” value (CCRF-CEM/Taxol cells) was 9.4 fold. For the same molecule, the tumor response [2] was “tumor regression”, the elimination [3] was “slow elimination” and the tissue distribution [3] was “rapid distribution to all organs except brain”.
